Reference: patent publication US11076595B2, “1-(n,n-disubstituted carbamoyl) 4-(substituted sulfonyl)triazolin-5-one derivative, 4-(n,n-disubstituted carbamoyl) 1-(substituted sulfonyl)triazolin-5-one derivative, and herbicide containing said derivative as active ingredient” (HOKKO CHEMICAL INDUSTRY CO., LTD., priority 2017, dated 2021)

Key:
Assay type in all cases: in vivo
Echinochloa crus-galli [1] = experiment: Test Example 11: herbicidal effect test by soil treatment in paddy field; details: 120 g/10a active ingredient, 14 days after treatment
How it was run: (§1)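 Seeds were sown 0-1 cm deep in puddled, fertilised paddy soil in Wagner pots and kept under about 3 cm of flooding in a greenhouse. Diluted emulsifiable concentrate was added dropwise right after sowing at 120 g a.i. per 10 are. Suppression (%) came from dry weight versus untreated pots after 14 days, two replicates.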

Lindernia pyxidaria [2] = experiment: as above; details: 120 g/10a active ingredient, 14 days after treatment
How it was run: as §1

Monochoria vaginalis [3] = experiment: as above; details: 120 g/10a active ingredient, 14 days after treatment
How it was run: as §1

Scirpus juncoides [4] = experiment: as above; details: 120 g/10a active ingredient, 14 days after treatment
How it was run: as §1

Echinochloa crus-galli [5] = experiment: Test Example 12: herbicidal effect test by treatment during growing period in paddy field; details: 120 g/10a; treatment seven days after sowing in flooded paddy pot; assessed 14 days after treatment
How it was run: (§2)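 Puddled, fertilized paddy soil in Wagner pots, sown with 30 seeds per species at 0–1 cm and flooded to ~3 cm in a glass greenhouse. Emulsifiable concentrate dripped into water 7 days after sowing at 120 g a.i. per 10 are. Suppression % from dry weight vs untreated, 14 days post-treatment, two replicates.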

Lindernia pyxidaria [6] = experiment: as above; details: 120 g/10a; treatment seven days after sowing in flooded paddy pot; assessed 14 days after treatment
How it was run: as §2

Monochoria vaginalis [7] = experiment: as above; details: 120 g/10a; treatment seven days after sowing in flooded paddy pot; assessed 14 days after treatment
How it was run: as §2

Scirpus juncoides [8] = experiment: as above; details: 120 g/10a; treatment seven days after sowing in flooded paddy pot; assessed 14 days after treatment
How it was run: as §2

Amaranthus viridis [9] = experiment: Test Example 13: herbicidal effect test by soil treatment in upland field; details: 120 g/10a, 14 days after treatment
How it was run: (§3)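 Pre-emergence soil treatment: alluvial soil pots (36 cm^2) sown with 20 seeds per weed species, sprayed one day later with water-diluted emulsifiable concentrate at 100 liter per 10 are, equal to 120 g active ingredient per 10 are. Two replicates; weed suppression (%) from dry weight versus untreated plots at 14 days.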

Chenopodium album [10] = experiment: as above; details: 120 g/10a, 14 days after treatment
How it was run: as §3

Echinochloa crus-galli [11] = experiment: as above; details: 120 g/10a, 14 days after treatment
How it was run: as §3

crabgrass [12] = experiment: as above; details: 120 g/10a, 14 days after treatment
How it was run: as §3

Chenopodium album [13] = experiment: Test Example 14: herbicidal effect test by foliage treatment in upland field; details: 7 days after sowing, 120 g/10a, 14 days after treatment
How it was run: (§4)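 Emulsifiable concentrate, water-diluted, is applied post-emergence to 7-day-old sowings in field soil at 120 g active ingredient per 10 are. The weed suppression rate derives from average dry weights versus untreated controls, measured 14 days later.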

crabgrass [14] = experiment: as above; details: 7 days after sowing, 120 g/10a, 14 days after treatment
How it was run: as §4

Amaranthus viridis [15] = experiment: as above; details: 7 days after sowing, 120 g/10a, 14 days after treatment
How it was run: as §4

Echinochloa crus-galli [16] = experiment: as above; details: 7 days after sowing, 120 g/10a, 14 days after treatment
How it was run: as §4

With `CC(C)N(C(=O)n1cnn(S(=O)(=O)C2CC2)c1=O)c1ccc(Cl)cn1` [Compound 11-233] the “Weed suppression rate (%) Echinochloa crus-galli” value (Echinochloa crus-galli [1]) was 100%, the “Weed suppression rate (%) Lindemia pyxidaria” value (Lindernia pyxidaria [2]) was 100% and the “Weed suppression rate (%) Monochoria vaginalis” value (Monochoria vaginalis [3]) was 90%. For the same compound, the “Weed suppression rate (%) Scirpus juncoides” value (Scirpus juncoides [4]) was 90%, the “Weed suppression rate (%) Echinochloa crus-galli” value (Echinochloa crus-galli [5]) was 100% and the “Weed suppression rate (%) Lindemia pyxidaria” value (Lindernia pyxidaria [6]) was 90%. The “Weed suppression rate (%) Monochoria vaginalis” value (Monochoria vaginalis [7]) was 90%, the “Weed suppression rate (%) Scirpus juncoides” value (Scirpus juncoides [8]) was 90% and the “herbicidal effect, Amaranthus viridis” value (Amaranthus viridis [9]) was 80%. For the same compound, the “herbicidal effect, Chenopodium album” value (Chenopodium album [10]) was 50%, the “herbicidal effect, Echinochloa crus-galli” value (Echinochloa crus-galli [11]) was 80% and the “herbicidal effect, Crabgrass” value (crabgrass [12]) was 90%. The “herbicidal effect, Chenopodium album” value (Chenopodium album [13]) was 50%, the “herbicidal effect, Crabgrass” value (crabgrass [14]) was 90% and the “herbicidal effect, Amaranthus viridis” value (Amaranthus viridis [15]) was 40%. The “herbicidal effect, Echinochloa crus-galli” value (Echinochloa crus-galli [16]) was 90%.

For `CC(C)N(C(=O)n1cnn(S(=O)(=O)C(C)C)c1=O)c1ccccc1` [Compound 11-48], the “Weed suppression rate (%) Echinochloa crus-galli” value (Echinochloa crus-galli [1]) was 90%, the “Weed suppression rate (%) Lindemia pyxidaria” value (Lindernia pyxidaria [2]) was 80% and the “Weed suppression rate (%) Monochoria vaginalis” value (Monochoria vaginalis [3]) was 80%. The “Weed suppression rate (%) Scirpus juncoides” value (Scirpus juncoides [4]) was 90%, the “Weed suppression rate (%) Echinochloa crus-galli” value (Echinochloa crus-galli [5]) was 90% and the “Weed suppression rate (%) Lindemia pyxidaria” value (Lindernia pyxidaria [6]) was 70%. The “Weed suppression rate (%) Monochoria vaginalis” value (Monochoria vaginalis [7]) was 90%, the “Weed suppression rate (%) Scirpus juncoides” value (Scirpus juncoides [8]) was 70% and the “herbicidal effect, Amaranthus viridis” value (Amaranthus viridis [9]) was 90%. For the same compound, the “herbicidal effect, Chenopodium album” value (Chenopodium album [10]) was 80%, the “herbicidal effect, Echinochloa crus-galli” value (Echinochloa crus-galli [11]) was 80% and the “herbicidal effect, Crabgrass” value (crabgrass [12]) was 90%. For the same compound, the “herbicidal effect, Chenopodium album” value (Chenopodium album [13]) was 70%, the “herbicidal effect, Crabgrass” value (crabgrass [14]) was 100% and the “herbicidal effect, Amaranthus viridis” value (Amaranthus viridis [15]) was 40%. For the same compound, the “herbicidal effect, Echinochloa crus-galli” value (Echinochloa crus-galli [16]) was 90%.

`CCN(CC)C(=O)n1cnn(S(=O)(=O)c2ccccc2Cl)c1=O` [Compound 11-500] was tested, and the “Weed suppression rate (%) Echinochloa crus-galli” value (Echinochloa crus-galli [1]) was 90%, the “Weed suppression rate (%) Lindemia pyxidaria” value (Lindernia pyxidaria [2]) was 50% and the “Weed suppression rate (%) Monochoria vaginalis” value (Monochoria vaginalis [3]) was 50%. For the same compound, the “Weed suppression rate (%) Scirpus juncoides” value (Scirpus juncoides [4]) was 50%, the “Weed suppression rate (%) Echinochloa crus-galli” value (Echinochloa crus-galli [5]) was 80% and the “Weed suppression rate (%) Lindemia pyxidaria” value (Lindernia pyxidaria [6]) was 60%. The “Weed suppression rate (%) Monochoria vaginalis” value (Monochoria vaginalis [7]) was 60%, the “Weed suppression rate (%) Scirpus juncoides” value (Scirpus juncoides [8]) was 60% and the “herbicidal effect, Amaranthus viridis” value (Amaranthus viridis [9]) was 0%. The “herbicidal effect, Chenopodium album” value (Chenopodium album [10]) was 0%, the “herbicidal effect, Echinochloa crus-galli” value (Echinochloa crus-galli [11]) was 80% and the “herbicidal effect, Crabgrass” value (crabgrass [12]) was 80%. For the same compound, the “herbicidal effect, Chenopodium album” value (Chenopodium album [13]) was 50%, the “herbicidal effect, Crabgrass” value (crabgrass [14]) was 40% and the “herbicidal effect, Amaranthus viridis” value (Amaranthus viridis [15]) was 40%. For the same compound, the “herbicidal effect, Echinochloa crus-galli” value (Echinochloa crus-galli [16]) was 40%.

For `CC(C)N(C(=O)n1cnn(S(=O)(=O)C2CCOCC2)c1=O)c1ccc(F)cc1F` [Compound 11-1109], the “Weed suppression rate (%) Echinochloa crus-galli” value (Echinochloa crus-galli [1]) was 90%, the “Weed suppression rate (%) Lindemia pyxidaria” value (Lindernia pyxidaria [2]) was 80% and the “Weed suppression rate (%) Monochoria vaginalis” value (Monochoria vaginalis [3]) was 80%. The “Weed suppression rate (%) Scirpus juncoides” value (Scirpus juncoides [4]) was 90%, the “Weed suppression rate (%) Echinochloa crus-galli” value (Echinochloa crus-galli [5]) was 90% and the “Weed suppression rate (%) Lindemia pyxidaria” value (Lindernia pyxidaria [6]) was 80%. The “Weed suppression rate (%) Monochoria vaginalis” value (Monochoria vaginalis [7]) was 80%, the “Weed suppression rate (%) Scirpus juncoides” value (Scirpus juncoides [8]) was 90% and the “herbicidal effect, Amaranthus viridis” value (Amaranthus viridis [9]) was 100%. For the same compound, the “herbicidal effect, Chenopodium album” value (Chenopodium album [10]) was 100%, the “herbicidal effect, Echinochloa crus-galli” value (Echinochloa crus-galli [11]) was 100% and the “herbicidal effect, Crabgrass” value (crabgrass [12]) was 100%. The “herbicidal effect, Chenopodium album” value (Chenopodium album [13]) was 80%, the “herbicidal effect, Crabgrass” value (crabgrass [14]) was 90% and the “herbicidal effect, Amaranthus viridis” value (Amaranthus viridis [15]) was 90%. The “herbicidal effect, Echinochloa crus-galli” value (Echinochloa crus-galli [16]) was 80%.

For `CC(C)N(C(=O)n1cnn(S(C)(=O)=O)c1=O)c1ccccc1` [Compound 11-1], the “Weed suppression rate (%) Echinochloa crus-galli” value (Echinochloa crus-galli [1]) was 90%, the “Weed suppression rate (%) Lindemia pyxidaria” value (Lindernia pyxidaria [2]) was 80% and the “Weed suppression rate (%) Monochoria vaginalis” value (Monochoria vaginalis [3]) was 80%. The “Weed suppression rate (%) Scirpus juncoides” value (Scirpus juncoides [4]) was 90%, the “Weed suppression rate (%) Echinochloa crus-galli” value (Echinochloa crus-galli [5]) was 90% and the “Weed suppression rate (%) Lindemia pyxidaria” value (Lindernia pyxidaria [6]) was 80%. The “Weed suppression rate (%) Monochoria vaginalis” value (Monochoria vaginalis [7]) was 80%, the “Weed suppression rate (%) Scirpus juncoides” value (Scirpus juncoides [8]) was 90% and the “herbicidal effect, Amaranthus viridis” value (Amaranthus viridis [9]) was 90%. For the same compound, the “herbicidal effect, Chenopodium album” value (Chenopodium album [10]) was 80%, the “herbicidal effect, Echinochloa crus-galli” value (Echinochloa crus-galli [11]) was 80% and the “herbicidal effect, Crabgrass” value (crabgrass [12]) was 90%. For the same compound, the “herbicidal effect, Chenopodium album” value (Chenopodium album [13]) was 80%, the “herbicidal effect, Crabgrass” value (crabgrass [14]) was 90% and the “herbicidal effect, Amaranthus viridis” value (Amaranthus viridis [15]) was 90%. The “herbicidal effect, Echinochloa crus-galli” value (Echinochloa crus-galli [16]) was 80%.

For `Cc1ccc(S(=O)(=O)n2ncn(C(=O)N(c3ccc(F)cc3Cl)C(C)C)c2=O)cc1` [Compound 11-644], the “Weed suppression rate (%) Echinochloa crus-galli” value (Echinochloa crus-galli [1]) was 90%, the “Weed suppression rate (%) Lindemia pyxidaria” value (Lindernia pyxidaria [2]) was 80% and the “Weed suppression rate (%) Monochoria vaginalis” value (Monochoria vaginalis [3]) was 80%. The “Weed suppression rate (%) Scirpus juncoides” value (Scirpus juncoides [4]) was 90%, the “Weed suppression rate (%) Echinochloa crus-galli” value (Echinochloa crus-galli [5]) was 90% and the “Weed suppression rate (%) Lindemia pyxidaria” value (Lindernia pyxidaria [6]) was 80%. The “Weed suppression rate (%) Monochoria vaginalis” value (Monochoria vaginalis [7]) was 80%, the “Weed suppression rate (%) Scirpus juncoides” value (Scirpus juncoides [8]) was 90% and the “herbicidal effect, Amaranthus viridis” value (Amaranthus viridis [9]) was 90%. For the same compound, the “herbicidal effect, Chenopodium album” value (Chenopodium album [10]) was 80%, the “herbicidal effect, Echinochloa crus-galli” value (Echinochloa crus-galli [11]) was 80% and the “herbicidal effect, Crabgrass” value (crabgrass [12]) was 90%. The “herbicidal effect, Chenopodium album” value (Chenopodium album [13]) was 80%, the “herbicidal effect, Crabgrass” value (crabgrass [14]) was 90% and the “herbicidal effect, Amaranthus viridis” value (Amaranthus viridis [15]) was 90%. The “herbicidal effect, Echinochloa crus-galli” value (Echinochloa crus-galli [16]) was 80%.

`CC(C)N(C(=O)n1cnn(S(=O)(=O)C2CC2)c1=O)c1c(F)cc(F)cc1F` [Compound 11-195] was tested, and the “Weed suppression rate (%) Echinochloa crus-galli” value (Echinochloa crus-galli [1]) was 100%, the “Weed suppression rate (%) Lindemia pyxidaria” value (Lindernia pyxidaria [2]) was 100% and the “Weed suppression rate (%) Monochoria vaginalis” value (Monochoria vaginalis [3]) was 80%. For the same compound, the “Weed suppression rate (%) Scirpus juncoides” value (Scirpus juncoides [4]) was 100%, the “Weed suppression rate (%) Echinochloa crus-galli” value (Echinochloa crus-galli [5]) was 100% and the “Weed suppression rate (%) Lindemia pyxidaria” value (Lindernia pyxidaria [6]) was 70%. For the same compound, the “Weed suppression rate (%) Monochoria vaginalis” value (Monochoria vaginalis [7]) was 90%, the “Weed suppression rate (%) Scirpus juncoides” value (Scirpus juncoides [8]) was 90% and the “herbicidal effect, Amaranthus viridis” value (Amaranthus viridis [9]) was 90%. For the same compound, the “herbicidal effect, Chenopodium album” value (Chenopodium album [10]) was 90%, the “herbicidal effect, Echinochloa crus-galli” value (Echinochloa crus-galli [11]) was 100% and the “herbicidal effect, Crabgrass” value (crabgrass [12]) was 100%. For the same compound, the “herbicidal effect, Chenopodium album” value (Chenopodium album [13]) was 70%, the “herbicidal effect, Crabgrass” value (crabgrass [14]) was 100% and the “herbicidal effect, Amaranthus viridis” value (Amaranthus viridis [15]) was 30%. The “herbicidal effect, Echinochloa crus-galli” value (Echinochloa crus-galli [16]) was 100%.

`CC(C)N(C(=O)n1cnn(S(=O)(=O)C2CC2)c1=O)c1ccc(F)cc1F` [Compound 11-142, 1-cyclopropylsulfonyl-N-(2,4-difluorophenyl)-N-isopropyl-5-oxo-1,2,4-triazole-4-carboxamide] was tested, and the “Weed suppression rate (%) Echinochloa crus-galli” value (Echinochloa crus-galli [1]) was 100%, the “Weed suppression rate (%) Lindemia pyxidaria” value (Lindernia pyxidaria [2]) was 100% and the “Weed suppression rate (%) Monochoria vaginalis” value (Monochoria vaginalis [3]) was 90%. The “Weed suppression rate (%) Scirpus juncoides” value (Scirpus juncoides [4]) was 100%, the “Weed suppression rate (%) Echinochloa crus-galli” value (Echinochloa crus-galli [5]) was 100% and the “Weed suppression rate (%) Lindemia pyxidaria” value (Lindernia pyxidaria [6]) was 80%. For the same compound, the “Weed suppression rate (%) Monochoria vaginalis” value (Monochoria vaginalis [7]) was 90%, the “Weed suppression rate (%) Scirpus juncoides” value (Scirpus juncoides [8]) was 80% and the “herbicidal effect, Amaranthus viridis” value (Amaranthus viridis [9]) was 90%. For the same compound, the “herbicidal effect, Chenopodium album” value (Chenopodium album [10]) was 80%, the “herbicidal effect, Echinochloa crus-galli” value (Echinochloa crus-galli [11]) was 80% and the “herbicidal effect, Crabgrass” value (crabgrass [12]) was 90%. The “herbicidal effect, Chenopodium album” value (Chenopodium album [13]) was 80%, the “herbicidal effect, Crabgrass” value (crabgrass [14]) was 90% and the “herbicidal effect, Amaranthus viridis” value (Amaranthus viridis [15]) was 90%. The “herbicidal effect, Echinochloa crus-galli” value (Echinochloa crus-galli [16]) was 80%.
